From PubChem BioAssay (NCI) come the findings set out here.

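Method: 48-hour compound exposure of cells in 96-well plates, five concentrations, linear interpolation of endpoints. GI50 = concentration required for 50% inhibition of growth. At the TGI there is no net growth.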 Where only a bound is given, the exact number is not on record here.

Some test systems named below: HCT-116 colon; MDA-MB-231 breast; 786-0 renal; IGROV1 ovarian; SNB-19 CNS; NCI-H522 lung; MCF7 breast; SK-MEL-28 melanoma; RPMI-8226 leukemia; A498 renal.
Experiment in all cases: DTP human tumour cell line panel, 48 h

For orientation: GI50 means the concentration at which growth is held to half of that of the control. One may read the TGI as the concentration at which net growth stops. Low values mean greater sensitivity of the cells, high ones lower sensitivity of the cells. Turning to `O=C(/C=C/c1cc(O)ccc1O)c1ccc(Cl)cc1`, the GI50 was 16.7 µM with HCT-116 colon; 11.7 µM in the experiment on MDA-MB-231 breast; 17.8 µM in the experiment on 786-0 renal; greater than 100 µM with IGROV1 ovarian; 36.8 µM in the experiment on SNB-19 CNS; 61.8 µM in the experiment with NCI-H522 lung. Besides, the GI50 in the experiment with MCF7 breast was 48.5 µM; in the experiment with SK-MEL-28 melanoma it was 60.4 µM. Also, the TGI in the experiment with HCT-116 colon is 41.6 µM; with MDA-MB-231 breast it was 43.5 µM; in the experiment on 786-0 renal, 61 µM; in the experiment on IGROV1 ovarian, greater than 100 µM; in the experiment with SNB-19 CNS it was greater than 100 µM; in the experiment with NCI-H522 lung, greater than 100 µM. Besides, the TGI with MCF7 breast and in the experiment with SK-MEL-28 melanoma was greater than 100 µM each time.

On to `Fc1cccc(-c2nc(-c3c[nH]c4ncccc34)cs2)c1`, for which the GI50 with HCT-116 colon was 7.9 µM; in the experiment with MDA-MB-231 breast, 38.2 µM; in the experiment with 786-0 renal, greater than 100 µM; in the experiment on RPMI-8226 leukemia it was greater than 100 µM; in the experiment on IGROV1 ovarian it was 8.15 µM; in the experiment on SNB-19 CNS, 22.6 µM. The values for the GI50 with NCI-H522 lung, in the experiment with MCF7 breast and with SK-MEL-28 melanoma were greater than 100 µM, 5.27 µM and greater than 100 µM, respectively. Besides, the TGI with HCT-116 colon, in the experiment with MDA-MB-231 breast, with 786-0 renal, in the experiment on RPMI-8226 leukemia, in the experiment on IGROV1 ovarian and with SNB-19 CNS was greater than 100 µM in each case. The TGI with NCI-H522 lung, in the experiment on MCF7 breast and with SK-MEL-28 melanoma was greater than 100 µM throughout.

For the compound `C=C(C)C1Cc2cc(C(C)=O)ccc2O1` (centres undefined), the TGI in the experiment with HCT-116 colon, with MDA-MB-231 breast, in the experiment on 786-0 renal, in the experiment on RPMI-8226 leukemia, with IGROV1 ovarian and in the experiment with SNB-19 CNS was greater than 100 µM each time. The TGI in the experiment on NCI-H522 lung, in the experiment on MCF7 breast and in the experiment on SK-MEL-28 melanoma was greater than 100 µM throughout.

Take `NCCNc1nc2ccc(F)cc2c2c(=O)c3cc(F)ccc3sc12`: the GI50 in the experiment with HCT-116 colon was 1.61 µM; in the experiment on A498 renal it was 1.64 µM; in the experiment on MDA-MB-231 breast, 1.51 µM; in the experiment with 786-0 renal, 1.59 µM; in the experiment with RPMI-8226 leukemia, 2.18 µM; in the experiment on IGROV1 ovarian it was 1.04 µM. Moreover, the GI50 in the experiment on SNB-19 CNS is 1.94 µM; with NCI-H522 lung, 1.73 µM; with SK-MEL-28 melanoma, 2.05 µM. Also, the TGI in the experiment with HCT-116 colon was determined as 2.96 µM; with A498 renal, 6.9 µM; in the experiment on MDA-MB-231 breast, 3.08 µM; in the experiment on 786-0 renal, 2.96 µM; in the experiment with RPMI-8226 leukemia, 5.11 µM; in the experiment with IGROV1 ovarian it was 2.37 µM. For the same compound, the TGI with SNB-19 CNS stood at 4.21 µM; in the experiment with NCI-H522 lung, 3.38 µM; in the experiment on SK-MEL-28 melanoma, 4.18 µM.

On to `Clc1ccc2c(NCCNc3nc(N4CCCCC4)nc4ccccc34)ccnc2c1`, for which the GI50 in the experiment with HCT-116 colon is 0.441 µM; with A498 renal it was 10.2 µM; in the experiment on 786-0 renal, 1.31 µM; in the experiment on IGROV1 ovarian, 2.54 µM; in the experiment with SNB-19 CNS it was 3.06 µM; in the experiment with NCI-H522 lung, 1.75 µM. For the same compound, the GI50 in the experiment on MCF7 breast is 0.748 µM; with SK-MEL-28 melanoma, 1.86 µM. Besides, the TGI turned out to be 1.63 µM in the experiment with HCT-116 colon; 22.1 µM with A498 renal; 2.78 µM with 786-0 renal; 9.86 µM in the experiment with IGROV1 ovarian; 15.6 µM with SNB-19 CNS; 3.85 µM in the experiment on NCI-H522 lung. Moreover, the TGI stood at 12.6 µM with MCF7 breast and 3.52 µM in the experiment with SK-MEL-28 melanoma.

For the compound `CCOc1cc(CCNC)c2c(ccc3ccc(OC)c(O)c32)c1OC`, the TGI in the experiment on HCT-116 colon was 22.1 µM; in the experiment with MDA-MB-231 breast, 28.5 µM; in the experiment with 786-0 renal, 32.1 µM; in the experiment on RPMI-8226 leukemia it was greater than 100 µM; in the experiment with IGROV1 ovarian, 27.7 µM; in the experiment with SNB-19 CNS it was 30.1 µM. Moreover, the TGI with NCI-H522 lung was 21.7 µM; in the experiment on MCF7 breast, 22.4 µM; with SK-MEL-28 melanoma, 37.8 µM.

Turning to `COc1ccc2c3c1OC1C4(CCC5C(C2)N(CC2CC2)CCC351)OCCO4` (centres undefined), the TGI in the experiment with HCT-116 colon, in the experiment on MDA-MB-231 breast, in the experiment on 786-0 renal, in the experiment on RPMI-8226 leukemia, in the experiment on IGROV1 ovarian and with SNB-19 CNS was greater than 100 µM throughout. The concentration for total growth inhibition (TGI) with NCI-H522 lung, with MCF7 breast and with SK-MEL-28 melanoma was greater than 100 µM each time.

For the compound `CC(NNC(=S)N1CCN(c2ccccn2)CC1)c1cccc[n+]1[O-]` (centres undefined), the TGI in the experiment with HCT-116 colon is 13.7 µM; with MDA-MB-231 breast, greater than 100 µM; with 786-0 renal it was greater than 100 µM; in the experiment with IGROV1 ovarian it was greater than 100 µM; in the experiment with SNB-19 CNS, greater than 100 µM; with NCI-H522 lung, 15.3 µM. The TGI in the experiment on MCF7 breast and in the experiment on SK-MEL-28 melanoma was greater than 100 µM in each case.

Regarding `O=C1c2ccccc2-c2c1c1ccc3ccccc3c1n2-c1ccccc1`, the GI50 in the experiment with MDA-MB-231 breast is 22.3 µM; in the experiment on 786-0 renal it was 25.3 µM; with RPMI-8226 leukemia, 65.1 µM; in the experiment with IGROV1 ovarian it was 29.7 µM; in the experiment with SNB-19 CNS, 25.7 µM; in the experiment on NCI-H522 lung it was 53.1 µM. Further, the values for the GI50 in the experiment on MCF7 breast and in the experiment on SK-MEL-28 melanoma were 15.6 µM and greater than 100 µM, respectively. The TGI is 47.3 µM in the experiment on MDA-MB-231 breast; 53.9 µM in the experiment with 786-0 renal; greater than 100 µM in the experiment on RPMI-8226 leukemia; greater than 100 µM in the experiment on IGROV1 ovarian; 59.1 µM in the experiment with SNB-19 CNS; greater than 100 µM in the experiment with NCI-H522 lung. The TGI in the experiment with MCF7 breast and in the experiment with SK-MEL-28 melanoma was greater than 100 µM each time.
